Target: T1, IRE1α (Homo sapiens, UniProt O75460)
T1 construct: purchased SignalChem
Test: In vitro FRET assay (XBP1 RNA probe cleavage by IRE1α)
Conditions: biochemical FRET assay, 2 nM IRE1α
Method: In vitro FRET assay was performed to evaluate the ability of select compounds to inhibit IRE1, the results of which are summarized in the following table.
To perform the in vitro FRET assay, 1× complete assay buffer (CAB; […], 50 mM sodium citrate pH 7.15, 1 mM magnesium acetate, 0.02% Tween 20) was used to dilute SignalChem IRE1α in protein to a final concentration of 2 nM. Selected compounds were serially diluted with DMSO in a non-binding black 384-well plate for a total of 15 μl in each well. 2 μl of the serially diluted compound or DMSO control were then added to new wells containing 98 μl of 1×CAB, for a total volume of 100 μl, 10 μl of which were then transferred to wells of a new plate. 5 μl of the diluted IRE1α was then added to each well. 5 μl of a […] XBP1 RNA probe was then added to each well. Fluorescence was then read over 30 minutes in kinetic mode (485/515 nm). Two RNA probes were used, XBP1 wildtype (CAUGUCCGCAGCACAUG; SEQ ID NO: 1) which is able to be spliced by active IRE1α or XBP1 mutant (CAUGUCCCCAGCACAUG; SEQ ID NO: 2) which is unable to be spliced. Each probe contained a 5′ 6-FAM modification and a 3′ IOWA Black FQ modification. […]

T1 sequence (O75460 19-977): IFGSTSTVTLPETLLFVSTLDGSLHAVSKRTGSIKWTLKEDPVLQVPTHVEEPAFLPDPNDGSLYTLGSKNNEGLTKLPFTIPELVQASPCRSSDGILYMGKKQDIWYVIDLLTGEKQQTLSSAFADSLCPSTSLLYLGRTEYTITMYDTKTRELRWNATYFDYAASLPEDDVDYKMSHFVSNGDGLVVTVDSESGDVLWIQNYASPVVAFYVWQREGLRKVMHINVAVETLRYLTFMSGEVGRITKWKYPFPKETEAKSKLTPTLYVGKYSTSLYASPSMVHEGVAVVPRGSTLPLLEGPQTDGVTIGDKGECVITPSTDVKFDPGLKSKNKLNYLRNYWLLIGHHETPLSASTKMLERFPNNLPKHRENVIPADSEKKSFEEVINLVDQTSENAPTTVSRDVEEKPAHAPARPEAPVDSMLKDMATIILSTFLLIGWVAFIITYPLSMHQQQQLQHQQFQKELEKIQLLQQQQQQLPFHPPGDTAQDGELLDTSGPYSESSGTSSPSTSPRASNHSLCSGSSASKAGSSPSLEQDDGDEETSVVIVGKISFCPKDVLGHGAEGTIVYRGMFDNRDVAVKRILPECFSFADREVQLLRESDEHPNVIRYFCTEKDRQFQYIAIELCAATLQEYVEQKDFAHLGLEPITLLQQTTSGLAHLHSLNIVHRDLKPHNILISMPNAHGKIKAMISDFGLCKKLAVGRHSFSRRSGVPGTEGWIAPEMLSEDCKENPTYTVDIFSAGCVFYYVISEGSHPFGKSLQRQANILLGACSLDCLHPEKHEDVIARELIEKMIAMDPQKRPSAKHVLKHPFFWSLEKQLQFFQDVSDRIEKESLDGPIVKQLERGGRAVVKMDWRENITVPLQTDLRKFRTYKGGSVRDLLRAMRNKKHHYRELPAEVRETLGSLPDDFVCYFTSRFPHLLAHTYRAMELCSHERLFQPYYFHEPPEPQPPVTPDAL

| Compound | EC50 [µM] |
| --- | --- |
| CN1CCN(Cc2ccc(NC(=O)Nc3ccc4oc(-c5cnn6ccccc56)nc4c3)cc2C(F)(F)F)CC1 [Compound 16, 1-(4-((4-methylpiperazin-1-yl)methyl)-3-(trifluoromethyl)phenyl)-3-(2-(pyrazolo[1,5-a]pyridin-3-yl)benzo[d]oxazol-5-yl)urea] | ≤ 5 |
| CN1CCN(Cc2ccc(NC(=O)Cc3cc(-c4ccc5nc(N)ncc5c4)n(C)n3)cc2C(F)(F)F)CC1 [Compound 33, 2-(5-(2-aminoquinazolin-6-yl)-1-methyl-1H-pyrazol-3-yl)-N-(4-((4-methylpiperazin-1-yl)methyl)-3-(trifluoromethyl)phenyl)acetamide] | 5 to 50 |
| CN1CCN(Cc2ccc(NC(=O)Nc3nn(C)c4cc(-c5cnc(N)nc5)ccc34)cc2C(F)(F)F)CC1 [Compound 9, 1-(6-(2-aminopyrimidin-5-yl)-1-methyl-1H-indazol-3-yl)-3-(4-((4-methylpiperazin-1-yl)methyl)-3-(trifluoromethyl)phenyl)urea] | ≤ 5 |
| CN1CCN(Cc2ccc(Nc3c(Nc4cc(-c5ccc6ccncc6c5)n(C)n4)c(=O)c3=O)cc2C(F)(F)F)CC1 [Compound 73, 3-((5-(isoquinolin-7-yl)-1-methyl-1H-pyrazol-3-yl)amino)-4-((4-((4-methylpiperazin-1-yl)methyl)-3-(trifluoromethyl)phenyl)amino) cyclobut-3-ene-1,2-dione] | ≤ 5 |
| Cn1nc(Nc2c(NC3CCCC3)c(=O)c2=O)cc1-c1ccc2nc(N)ncc2c1 [Compound 76, 3-((5-(2-aminoquinazolin-6-yl)-1-methyl-1H-pyrazol-3-yl)amino)-4-(cyclopentylamino)cyclobut-3-ene-1,2-dione] | 50 to 100 |
| CN1CCC(Cc2ccc(NC(=O)Cc3cc(-c4ccc5nc(N)ncc5c4)n(C)n3)cc2C(F)(F)F)CC1 [Compound 49, 2-(5-(2-aminoquinazolin-6-yl)-1-methyl-1H-pyrazol-3-yl)-N-(4-((1-methylpiperidin-4-yl)methyl)-3-(trifluoromethyl)phenyl)acetamide] | > 100 |
| CN1CCN(Cc2ccc(NC(=O)Nc3cc(-c4ccc(-c5cccn6ccnc56)cc4)n(C)n3)cc2C(F)(F)F)CC1 [Compound 54, 1-(5-(4-(imidazo[1,2-a]pyridin-8-yl)phenyl)-1-methyl-1H-pyrazol-3-yl)-3-(4-((4-methylpiperazin-1-yl)methyl)-3-(trifluoromethyl)phenyl)urea] | ≤ 5 |
| CN1CCN(Cc2ccc(NC(=O)Nc3nc(-c4ccc5ccncc5c4)n(C)n3)cc2C(F)(F)F)CC1 [Compound 34, 1-(5-(isoquinolin-7-yl)-1-methyl-1H-1,2,4-triazol-3-yl)-3-(4-((4-methylpiperazin-1-yl)methyl)-3-(trifluoromethyl)phenyl)urea] | 5 to 50 |
| CN1CCN(Cc2ccc(NC(=O)Nc3cc(-c4ccc5ccncc5c4)n(C)n3)c(-c3cnn(C)c3)c2)CC1 [Compound 21, 1-(5-(isoquinolin-7-yl)-1-methyl-1H-pyrazol-3-yl)-3-(2-(1-methyl-1H-pyrazol-4-yl)-4-((4-methylpiperazin-1-yl)methyl)phenyl)urea] | 50 to 100 |
| Cc1nc(NC(=O)Nc2ccc(CN3CCN(C)CC3)c(C(F)(F)F)c2)n(C)c1-c1ccc2cc(N)ncc2c1 [Compound 50, 1-(5-(3-aminoisoquinolin-7-yl)-1,4-dimethyl-1H-imidazol-2-yl)-3-(4-((4-methylpiperazin-1-yl)methyl)-3-(trifluoromethyl)phenyl)urea] | 5 to 50 |
| Cn1nc(NC(=O)c2cccc(-n3cccn3)c2)cc1-c1ccc2ccncc2c1 [Compound 20, N-(5-(isoquinolin-7-yl)-1-methyl-1H-pyrazol-3-yl)-3-(1H-pyrazol-1-yl)benzamide] | > 100 |
| COc1ccccc1NC(=O)Nc1cc(-c2ccc3ccncc3c2)n(C)n1 [Compound 65, 1-(5-(isoquinolin-7-yl)-1-methyl-1H-pyrazol-3-yl)-3-(2-methoxyphenyl)urea] | > 100 |
| O=C(Nc1ccc(CN2CCN(Cc3ccccc3)CC2)c(C(F)(F)F)c1)Nc1ccc2oc(-c3cccnc3)nc2c1 [Compound 14, 1-(4-((4-benzylpiperazin-1-yl)methyl)-3-(trifluoromethyl)phenyl)-3-(2-(pyridin-3-yl)benzo[d]oxazol-5-yl)urea] | 50 to 100 |
| CN1CCN(Cc2ccc(NC(=O)Nc3cc(-c4ccc5ccncc5c4)n(C)n3)cc2Br)CC1 [Compound 44, 1-(3-bromo-4-((4-methylpiperazin-1-yl)methyl)phenyl)-3-(5-(isoquinolin-7-yl)-1-methyl-1H-pyrazol-3-yl)urea] | 5 to 50 |
| CN1CCN(Cc2ccc(NC(=O)Nc3n[nH]c4cc(-c5cnc(N)nc5)ccc34)cc2C(F)(F)F)CC1 [Compound 11, 1-(6-(2-aminopyrimidin-5-yl)-1H indazol-3-yl)-3-(4-((4-methylpiperazin-1-yl)methyl)-3-(trifluoromethyl)phenyl)urea] | 5 to 50 |
| CN1CCN(Cc2ccc(CC(=O)Nc3cc(-c4ccc5cc(N)ncc5c4)n(C)n3)cc2C(F)(F)F)CC1 [Compound 51, N-(5-(3-aminoisoquinolin-7-yl)-1-methyl-1H-pyrazol-3-yl)-2-(4-((4-methylpiperazin-1-yl)methyl)-3-(trifluoromethyl)phenyl)acetamide] | 5 to 50 |
| Cn1nc(NC(=O)Nc2ccc(CN3CCN(CCO)CC3)c(C(F)(F)F)c2)cc1-c1ccc2ccncc2c1 [Compound 36, 1-(4-((4-(2-hydroxyethyl)piperazin-1-yl)methyl)-3-(trifluoromethyl)phenyl)-3-(5-(isoquinolin-7-yl)-1-methyl-1H-pyrazol-3-yl)urea] | ≤ 5 |
| Cn1nc(NS(=O)(=O)c2cccc(C(F)(F)F)c2)cc1-c1ccc2ccncc2c1 [Compound 72, N-(5-(isoquinolin-7-yl)-1-methyl-1H-pyrazol-3-yl)-3-(trifluoromethyl)benzene-sulfonamide] | 50 to 100 |
| CNS(=O)(=O)c1ccc(NC(=O)Nc2cc(-c3ccc4ccncc4c3)n(C)n2)cc1 [Compound 70, 4-(3-(5-(isoquinolin-7-yl)-1-methyl-1H-pyrazol-3-yl)ureido)-N-methylbenzenesulfonamide] | > 100 |
| O=C(Nc1ccc2oc(-c3cccnc3)nc2c1)[C@H]1C[C@H]1c1ccccc1 [Compound 59, (1S,2R)-2-phenyl-N-(2-(pyridin-3-yl)benzo[d]oxazol-5-yl)cyclopropane-1-carboxamide] | 5 to 50 |
| O=C(Nc1ccccc1)Nc1ccc2oc(-c3cccnc3)nc2c1 [Compound 56, 1-phenyl-3-(2-(pyridin-3-yl)benzo[d]oxazol-5-yl)urea] | > 100 |
| CN1CCC(=Cc2ccc(NC(=O)Nc3cc(-c4ccc5cc(N)ncc5c4)n(C)n3)cc2C(F)(F)F)CC1 [Compound 71, 1-(5-(3-aminoisoquinolin-7-yl)-1-methyl-1H-pyrazol-3-yl)-3-(4-((1-methylpiperidin-4-ylidene)methyl)-3-(trifluoromethyl)phenyl)urea] | 5 to 50 |
| Cn1nc(NC(=O)c2ccccc2)cc1-c1ccc2cc(N)ncc2c1 [Compound 67, N-(5-(3-aminoisoquinolin-7-yl)-1-methyl-1H-pyrazol-3-yl)benzamide] | > 100 |
| CN1CCN(Cc2ccc(Nc3c(Nc4cc(-c5ccc6ccncc6c5)n(C)n4)c(=O)c3=O)cc2)CC1 [Compound 74, 3-((5-(isoquinolin-7-yl)-1-methyl-1H-pyrazol-3-yl)amino)-4-((4-((4-methylpiperazin-1-yl)methyl)phenyl)amino)cyclo-but-3-ene-1,2-dione] | ≤ 5 |
